Key:
Typhlodromus pyri [1] = assay: LR50; higher = less toxic; settings: not reported; mortality
Apis mellifera = settings: acute; duration: 48 hours; oral; unspecified; mortality
Pimephales promelas = settings: chronic/long-term; duration: 36 days; development
Daphnia magna = settings: chronic/long-term; duration: 21 days
Oncorhynchus mykiss = settings: acute; duration: 96 hours; mortality
Typhlodromus pyri [2] = settings: not reported; F; reproduction
Tagia sp. = settings: acute; duration: 14 days; mortality
Colinus virginianus = settings: for NOEL: reproduction developmental
Anas platyrhynchos = settings: oral, mortality
Oryctolagus sp. = settings: reproduction developmental; body weight
Canidae = settings: subchronic; duration: 90 days; oral; Dog Other; histopathology: nonneoplastic

COc1cnc(OC)n2nc(NS(=O)(=O)c3c(OCC(F)F)cccc3C(F)(F)F)nc12 [Penoxsulam]
LR50 (Typhlodromus pyri [1]): 7.46 g/ha | LD50 (Apis mellifera): > 100 µg/piece | NOEC (Pimephales promelas): 10 mg/L | NOEC (Daphnia magna): 3.33 mg/L | LC50 (Oncorhynchus mykiss): > 100 µg/mL | LEL (Typhlodromus pyri [2]): 4 g/ha | LC50 (Tagia sp.): > 1000 mg/kg | LC50 (Colinus virginianus; acute, duration: 8 days, oral, diet, mortality): > 804 mg/kg-day | NOEL (Colinus virginianus; F): 80.1 mg/kg-day | NOEL (Colinus virginianus; M): 82.5 mg/kg-day | LD50 (Anas platyrhynchos; acute, unspecified): > 2000 mg/kg-day | LC50 (Anas platyrhynchos; short-term, duration: 8 days, feed): > 1120 mg/kg-day | NOAEL (Oryctolagus sp.): 25 mg/kg-day | NOAEL (Canidae): 18 mg/kg-day | LD50 (Rattus norvegicus; acute, oral, mortality): > 5000 mg/kg-day | NOAEL (Rattus norvegicus; chronic, duration: 2 years, histopathology: nonneoplastic): 5 mg/kg-day | NOAEL (Rattus norvegicus; reproduction developmental, body weight): 100 mg/kg-day | NOAEL (Rattus norvegicus; reproduction developmental, reproduction): 300 mg/kg-day

Reference: EPA's ToxValDB 9.5 (doi:10.2903/j.efsa.2009.343r)
